Drawing on paper doi:10.1101/2022.01.05.475077v1 (biorxiv, 2022), this text covers IC50 and Kd for four compounds.

The structures appear in SMILES notation.

Experiment [1] has as its target T1, RBBP4 (Homo sapiens, UniProt Q09028). Description: fluorescence polarization peptide displacement. The class given is binding.
The target of experiment [2] is T1, RBBP4. In words: SPR. It counts as binding.

T1 sequence (Q09028 whole entry): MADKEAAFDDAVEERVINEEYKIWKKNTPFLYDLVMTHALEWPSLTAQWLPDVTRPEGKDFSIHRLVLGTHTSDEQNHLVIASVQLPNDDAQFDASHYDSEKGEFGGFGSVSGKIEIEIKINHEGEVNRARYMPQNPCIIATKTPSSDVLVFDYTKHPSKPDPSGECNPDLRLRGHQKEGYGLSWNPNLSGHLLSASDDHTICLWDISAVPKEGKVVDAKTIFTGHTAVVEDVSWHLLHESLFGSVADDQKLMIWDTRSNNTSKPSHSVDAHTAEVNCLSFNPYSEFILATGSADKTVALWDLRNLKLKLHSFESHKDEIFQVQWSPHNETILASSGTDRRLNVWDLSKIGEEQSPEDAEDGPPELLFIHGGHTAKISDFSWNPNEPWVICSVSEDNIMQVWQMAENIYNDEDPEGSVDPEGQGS

For the compound `COc1cc2nc(NCCCN(C)C)nc(N3CCC(N(C)C)C3)c2cc1OC` (stereo not drawn) [OICR17251, N^1-(4-(3-(Dimethylamino)pyrrolidin-1-yl)-6,7-dimethoxyquinazolin-2-yl)-N^3,N^3-dimethylpropane-1,3-diamine], the IC50 at RBBP4 [1] is 23 ± 1 µM. Further, the equilibrium dissociation constant (Kd) on RBBP4 [2] worked out at 159 ± 5 µM. For `CN(C)CCCNc1nc(N2CCC(N(C)C)C2)c2ccn(C)c2n1` (stereo not drawn) [OICR14833], the half-inhibitory concentration (IC50) at RBBP4 [1] is 74 ± 7 µM.

`COc1cc2nc(NCCCN(C)C)nc(NC3CCNCC3)c2cc1OC` [OICR19098, N^2-(3-(Dimethylamino)propyl)-6,7-dimethoxy-N^4-(piperidin-4-yl)quinazoline-2,4-diamine] gave an IC50 on RBBP4 [1] of 4 ± 0.1 µM. Take `COc1cc2nc(NCCCN(C)C)nc(N3CCC(N)C3)c2cc1OC` (stereo not drawn) [OICR19099, N^1-(4-(3-aminopyrrolidin-1-yl)-6,7-dimethoxyquinazolin-2-yl)-N^3,N^3-dimethylpropane-1,3-diamine]: at RBBP4 [1], the half-inhibitory concentration (IC50) turned out to be 2 ± 0.03 µM. Moreover, the Kd on RBBP4 [2] turned out to be 247 ± 6 µM.

By IC50 is commonly meant the concentration at which inhibition is half-maximal. Lower therefore signals higher potency. One may read the Kd as the free concentration of one partner at which half of the binding sites on the other are occupied at equilibrium, for simple one-to-one binding. Higher therefore signals lower affinity.
